These results are taken from ChEMBL document CHEMBL1158472, “Carbonic anhydrase-encoded dynamic constitutional libraries: toward the discovery of isozyme-specific inhibitors” (J Med Chem, 2009).

Usually Ki stands for the equilibrium dissociation constant of an inhibitor or competing ligand from its target. High values mean lower affinity, low ones higher affinity.

The target in assay [1] is T1, Carbonic anhydrase 2 (Homo sapiens, UniProt P00918). The assay can be described thus: Binding affinity to human carbonic anhydrase 2.
The next assay deals with Carbonic anhydrase 1 (Homo sapiens, UniProt P00915). Briefly: Inhibition of human erythrocytes carbonic anhydrase 1 by CO2 hydration assay.
Carbonic anhydrase 1, sequence (P00915 whole entry): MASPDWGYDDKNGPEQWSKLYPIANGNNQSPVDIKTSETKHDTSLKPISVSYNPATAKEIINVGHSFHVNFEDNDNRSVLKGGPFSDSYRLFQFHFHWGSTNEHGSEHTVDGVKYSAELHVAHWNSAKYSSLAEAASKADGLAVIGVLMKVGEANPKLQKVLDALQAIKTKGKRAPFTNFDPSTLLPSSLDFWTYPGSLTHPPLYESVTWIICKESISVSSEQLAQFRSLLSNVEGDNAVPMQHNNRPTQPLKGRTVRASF
The target of assay [2] is T1, Carbonic anhydrase 2. Briefly: Inhibition of human erythrocytes carbonic anhydrase 2 by CO2 hydration assay.

In turn, `Cc1ccc(S(=O)(=O)O)cc1` returned an inhibition constant (Ki) at Carbonic anhydrase 2 [1] of 460 µM.
`Fc1ccccc1CNCc1ccccc1`: the inhibition constant (Ki) on Carbonic anhydrase 1 and at Carbonic anhydrase 2 [2] was greater than 100 µM each time.
In the case of `Fc1ccccc1/C=N/Cc1ccccc1`, the Ki on Carbonic anhydrase 1 and at Carbonic anhydrase 2 [2] was greater than 100 µM in each case.
As to `O=C(O)c1cccc(CNCc2ccccc2)c1`, the Ki at Carbonic anhydrase 1 and at Carbonic anhydrase 2 [2] was greater than 100 µM each time.
Take `O=C(O)c1cccc(/C=N/Cc2ccccc2)c1`: the inhibitory constant (Ki) at Carbonic anhydrase 1 and at Carbonic anhydrase 2 [2] was greater than 100 µM throughout.
`O=S(=O)(O)c1ccc(/C=N/Cc2ccccc2)o1` gave a Ki on Carbonic anhydrase 2 [2] greater than 100 µM.
